Data: patent US7342015B2, “Indole derivatives” (H. Lundbeck A/S, priority 2001, dated 2008)

How the values were obtained:
[1] = target: T1, re-uptake of serotonin (3H-5-HT uptake into whole rat brain synaptosomes) (Rattus norvegicus, UniProt P31652); experiment: Inhibition of 3H-5-HT uptake into rat brain synaptosomes; type: biochemical; settings: in vitro
T1 construct: whole rat brain synaptosomes; from tissue; host or cells: whole rat brain synaptosomes
Method: The compounds of the invention have also been tested for their effect on re-uptake of serotonin in the following test:
Inhibition of ^3H-5-HT Uptake Into Rat Brain Synaptosomes.
Using this method, the ability of drugs to inhibit the accumulation of ^3H-5-HT into whole rat brain synaptosomes is determined in vitro. The assay was performed as described by Hyttel, J. Psychopharmacology 1978, 60, 13.

cloned 5-HT1A receptors [2] = target: T2, cloned 5-HT1A receptors (Homo sapiens, UniProt P08908); experiment: 5-HT1A antagonistic activity: antagonism of 5-HT induced inhibition of forskolin induced cAMP accumulation in transfected HeLa cells (HA7); type: cell-based; settings: cloned 5-HT1A receptors in transfected HeLa cells (HA7)
T2 construct: expressed in transfected cells; host or cells: HeLa cells (HA7)
T2 sequence (P08908 1-422): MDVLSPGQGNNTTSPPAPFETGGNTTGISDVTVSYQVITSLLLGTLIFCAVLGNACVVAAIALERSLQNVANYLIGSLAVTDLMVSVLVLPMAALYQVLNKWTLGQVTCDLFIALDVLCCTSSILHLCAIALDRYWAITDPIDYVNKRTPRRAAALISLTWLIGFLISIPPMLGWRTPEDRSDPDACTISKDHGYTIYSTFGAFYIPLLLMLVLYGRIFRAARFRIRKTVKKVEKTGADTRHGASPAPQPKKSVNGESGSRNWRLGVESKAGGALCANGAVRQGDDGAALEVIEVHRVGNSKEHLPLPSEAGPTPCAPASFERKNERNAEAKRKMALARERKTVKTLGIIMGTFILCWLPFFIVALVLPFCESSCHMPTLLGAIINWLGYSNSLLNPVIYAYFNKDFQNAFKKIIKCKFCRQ
Method: The 5-HT1A antagonistic activity of some of the compounds of the invention has been estimated in vitro at cloned 5-HT1A receptors, stably expressed in transfected HeLa cells (HA7). In this test, 5-HT1A antagonistic activity is estimated by measuring the ability of the compounds to antagonize the 5-HT induced inhibition of forskolin induced cAMP accumulation. The assay was performed as a modification of the method described by Pauwels, P. J. et al. Biochem. Pharmacol. 1993, 45, 375.

cloned 5-HT1A receptors [3] = target: T2, cloned 5-HT1A receptors; experiment: Inhibition of 3H-5-CT binding to human 5-HT1A receptors; settings: cloned human 5-HT1A receptors in transfected HeLa cells (HA7), 15 minutes at 37° C., pH 7.7
Method: The affinity of the compounds of the invention to 5-HT1A receptors was determined by measuring the inhibition of binding of a radioactive ligand at 5-HT1A receptors as described in the following test:
Inhibition of ^3H-5-CT Binding to Human 5-HT1A Receptors.
By this method, the inhibition by drugs of the binding of the 5-HT1A agonist ^3H-5-carboxamido tryptamine (3H-5-CT) to cloned human 5-HT1A receptors stably expressed in transfected HeLa cells (HA7) (Fargin, A. et al. J. Biol. Chem. 1989, 264, 14848) is determined in vitro. The assay was performed as a modification of the method described by Harrington, M. A. et al. J. Pharmacol. Exp. Ther. 1994, 268, 1098. Human 5-HT1A receptors (40 μg of cell homogenate) were incubated for 15 minutes at 37° C. in 50 mM Tris buffer at pH 7.7 in the presence of ^3H-5-CT. Non-specific binding was determined by including 10 μM of metergoline. The reaction was terminated by rapid filtration through Unifilter GF/B filters on a Tomtec Cell Harvester. Filters were counted in a Packard Top Counter.

T1 sequence (P31652 whole entry): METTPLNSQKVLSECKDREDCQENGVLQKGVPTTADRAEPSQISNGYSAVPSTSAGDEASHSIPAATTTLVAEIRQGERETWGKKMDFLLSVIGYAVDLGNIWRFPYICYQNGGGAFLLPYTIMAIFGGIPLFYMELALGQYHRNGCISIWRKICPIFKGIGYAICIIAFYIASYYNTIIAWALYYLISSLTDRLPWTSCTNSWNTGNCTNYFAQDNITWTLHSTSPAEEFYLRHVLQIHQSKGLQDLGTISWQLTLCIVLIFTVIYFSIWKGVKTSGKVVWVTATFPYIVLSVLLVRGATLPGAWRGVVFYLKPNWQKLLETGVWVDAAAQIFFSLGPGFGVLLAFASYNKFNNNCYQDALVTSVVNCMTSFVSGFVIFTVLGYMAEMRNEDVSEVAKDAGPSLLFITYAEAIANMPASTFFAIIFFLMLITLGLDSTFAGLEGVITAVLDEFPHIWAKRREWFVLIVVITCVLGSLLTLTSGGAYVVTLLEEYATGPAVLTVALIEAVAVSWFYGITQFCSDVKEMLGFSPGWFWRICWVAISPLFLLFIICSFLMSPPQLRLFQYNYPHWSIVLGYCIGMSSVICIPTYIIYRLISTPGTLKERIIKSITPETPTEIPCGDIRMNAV

| IC50 [1] [nM] | IC50 (cloned 5-HT1A receptors [2]) [nM] | IC50 (cloned 5-HT1A receptors [3]) [nM] | SMILES |
| --- | --- | --- | --- |
| < 20 | < 7000 | – | Cc1cc(C)c(C#N)c(SCCN2CCN(c3cccc4[nH]ccc34)CC2)n1 [Compound 1a, 2-{2-[4-(1H-Indol-4-yl)piperazin-1-yl]ethylsulfanyl}-4,6-dimethylnicotinonitrile] |
| < 20 | < 7000 | < 50 | Cc1ccc(C#N)c(SCCN2CCN(c3cccc4[nH]ccc34)CC2)n1 [Compound 1d, 2-{2-[4-(1H-Indol-4-yl)piperazin-1-yl]ethylsulfanyl}-6-methylnicotinonitrile] |
| < 20 | < 7000 | – | Cc1cc(C)c(C#N)c(SCCCN2CCN(c3cccc4[nH]ccc34)CC2)n1 [Compound 1l, 2-{3-[4-(1H-Indol-4-yl)piperazin-1-yl]propylsulfanyl}-4,6-dimethylnicotinonitrile] |
| < 20 | < 7000 | < 50 | N#Cc1cccnc1SCCN1CCN(c2cccc3[nH]ccc23)CC1 [Compound 2b, 2-{2-[4-(1H-Indol-4-yl)piperazin-1-yl]ethylsulfanyl}nicotinonitrile] |
| < 20 | < 7000 | < 50 | N#Cc1c(C(F)(F)F)cc(C2CC2)nc1SCCN1CCN(c2cccc3[nH]ccc23)CC1 [Compound 2e, 2-{2-[4-(1H-Indol-4-yl)piperazin-1-yl]ethylsulfanyl}-4-trifluoromethyl-6-cyclopropylnicotinonitrile] |
| < 20 | – | < 50 | Cc1cc(C)nc(SCCN2CCN(c3cccc4[nH]ccc34)CC2)n1 [Compound 2o, 4,6-Dimethyl-2-{2-[4-(1H-indol-4-yl)piperazin-1-yl]ethylsulfanyl}pyrimidine] |
